Experimental data as given in patent US6518246B1, “Pharmaceutical composition and method for the treatment of neoplastic cells” (priority 2001, dated 2003).

Experiments:
[1] = test system: N-methyl-N′-nitroguanidine-induced rat colonic adenocarcinoma; experiment: Tumour volume and wet weight, Example 1; type: in vivo, nude mice (C57BL/6JBom-nu); conditions: single substance 10 μg/kg body weight every 12 hours for five days, vs controls; for tumour volume: P=0.4; for tumour weight: P=0.8
Description: (§1) Female nude mice (C57BL/6JBom-nu, Bomholtgård Breeding and Research Centre, Denmark), 8 weeks old, with a mean body weight of 22.9 g (range 20.4-25.5), were used in this investigation. The mice were kept one to each cage in a laminar filtered airflow cabinet under pathogen-free conditions. The animals were kept under a constant temperature (22±2° C.) and relative humidity (55±5%), with 12 h dark/light cycles. They were fed on a standard pellet diet (R 34, Lactamin, Vadstena, Stockholm) and given water ad libitum. All experiments were performed by aseptic techniques under laminar airflow.
Twenty mice were injected s.c. with 100 μl cell suspension containing 2×10^6 viable cells of an N-methyl-N′-nitroguanidine-induced rat colonic adenocarcinoma (provided kindly by Professor L.-O. Hafström, Departnent of Surgery, University Hospital, Umeå, Sweden). After seven days, the greatest and least diameters of the tumours were measured and the volume was calculated with the use of the following formula:
volume=(mean diameter)^333 π/6.
(§2) The animals were divided into two groups of 10 mice each. The first group received s.c. injections of 100 μl saline solution containing a mixture of octreotide (Sandostatin®, Novartis), galanin (synthetic human galanin, Sigma, Stockholm), and serotonin (5-hydroxytryptamine, oxalate salt, Sigma) at 10 μg/kg body weight each. Injections were administered every 12 hours for five days. The second group served as controls and received only saline solution. Thirty-two mice were implanted with the tumour as described above and left for seven days. After measuring the tumour diameter, the animals were divided into four groups of eight. The first group was injected with 100 μl saline solution, the second with 100 μl saline solution containing 10 μg/kg body weight octreotide, the third group with 100 μl saline solution containing 10 μg/kg body weight galanin, and the last group was injected with 100 μl saline solution containing 10 μg/kg bodyweight serotonin. Injections were administered every 12 hours for five days.
(§3) At the end of the experiments, the animals were weighed and then decapitated. The tumours were dissected carefully and their diameters and weight were determined. Three tissue samples cut perpendicular to the surface were taken from each tumour, two from the periphery and one from the middle. The tissue samples were fixed overnight in 4% buffered paraformaldehyde, embedded in paraffin wax, and cut at 5 μm.

[2] = test system: N-methyl-N′-nitroguanidine-induced rat colonic adenocarcinoma; experiment: Apoptosis by in situ hybridisation, apoptotic index, Example 1; type: in vivo, nude mice (C57BL/6JBom-nu); conditions: single substance 10 μg/kg, five days; for Apoptotic index, second in situ hybridisation kit (mean±SD): controls 3.5±0.6, P=0.15; for Apoptotic index, first in situ hybridisation kit: vs controls, P=0.2
Description: as §2, §3
Apoptosis was detected by in situ hybridisation using two different kits (TA200 and TA5411) from R&D Systems Inc (Minneapolis, Minn. USA). Both kits detect DNA fragmentation, but with two different detection approaches. In the first kit, fragments of DNA were detected by incorporating modified nucleotides at the 3′OH ends of the fragments, using terminal deoxynucleotidyl transferase (TdT). The incorporated 5-bromodeoxyuridine (BrdU) was detected by a biotinylated anti-BrdU antibody. A streptavidin-conjugated horsradish peroxidase specifically bound to the biotinylated antibody. In the second kit, TdT added biotinylated nucleotides to the 3′OH ends of the DNA fragments. Again, a streptavidin-conjugated horseradish peroxidase specifically bound to the biotinylated DNA fragments. The peroxidase in both kits was detected by diaminobenzidine tetrahydrochloride (DAB). The sections were counter-stained with methyl green. […]
Apoptotic index was determined using the unbiased counting frames (as described in detail previously), adapted to computer image analysis (Palmqvist et al., 1998). […] About 40 fields from each tumour, spread randomly in sections from the three tissue samples, were measured. For each tumour about 200 positive and 200 negative nuclei were counted. The labelling index (LI) was calculated as follows: […]

[3] = test system: N-methyl-N′-nitroguanidine-induced rat colonic adenocarcinoma; experiment: Proliferation (PCNA immunostaining), proliferation index, Example 1; type: in vivo, nude mice (C57BL/6JBom-nu); conditions: single substance 10 μg/kg, five days; vs controls, P=0.8
Description: (§4) The animals were divided into two groups of 10 mice each. The first group received s.c. injections of 100 μl saline solution containing a mixture of octreotide (Sandostatin®, Novartis), galanin (synthetic human galanin, Sigma, Stockholm), and serotonin (5-hydroxytryptamine, oxalate salt, Sigma) at 10 μg/kg body weight each. Injections were administered every 12 hours for five days. The second group served as controls and received only saline solution. Thirty-two mice were implanted with the tumour as described above and left for seven days. After measuring the tumour diameter, the animals were divided into four groups of eight. […]
At the end of the experiments, the animals were weighed and then decapitated. The tumours were dissected carefully and their diameters and weight were determined. […]
To detect proliferation, the sections from the tumour tissue samples from all the animals were immnmostained with the avidin-biotin-complex (ABC) method (Dakopatts, Glostrup, Denmark), as described in detail earlier (E1-Salhy et al., 1993). […] Peroxidase was detected by immersing the sections in 50 ml Tris-buffer containing 25 mg diaminobenzidine tetrahydrochloride (DAB) and 10 μl of 30% H2O2 followed by slight counter-staining in Mayer's haematoxylin. […] The proliferating index was determined as described for apoptosis.

[4] = test system: asymptomatic advanced colon carcinoma; conditions: about 7 μ/kg/d; patients; cited from earlier work
[5] = Deaths of animals during treatment, Example 1; type: in vivo, nude mice (C57BL/6JBom-nu); conditions: single substance 10 μg/kg every 12 hours; dissection: metastasis / abdominal carcinosis
Description: as §1, §4

rat colonic cancer cells = conditions: in vivo; cited from earlier work

Row | Compound | tumour volume [1] | tumour weight [1] | Apoptotic index, second in situ hybridisation kit (mean±SD) [2] | Apoptotic index, first in situ hybridisation kit [2] | tumour proliferation index [3] | progression of the disease [4] | deaths during the experiment [5] | mitotic rate of rat colonic cancer cells (rat colonic cancer cells)
1 | octreotide | no significant difference | no significant difference | 3±1.1 | no difference | Neither was there any difference | no effect |  | 
2 | CC(C)C[C@H](NC(=O)CNC(=O)[C@H](CC(N)=O)NC(=O)[C@H](CCCCN)NC(=O)[C@H](CC(=O)O)NC(=O)[C@H](CO)NC(=O)[C@H](Cc1ccccc1)NC(=O)[C@H](CO)NC(=O)[C@H](CCCNC(=N)N)NC(=O)[C@H](Cc1cnc[nH]1)NC(=O)[C@H](CC(N)=O)NC(=O)CNC(=O)[C@@H](NC(=O)[C@H](C)NC(=O)[C@H](Cc1cnc[nH]1)NC(=O)[C@@H]1CCCN1C(=O)CNC(=O)[C@H](CC(C)C)NC(=O)[C@H](CC(C)C)NC(=O)[C@H](Cc1ccc(O)cc1)NC(=O)CNC(=O)[C@H](C)NC(=O)[C@H](CO)NC(=O)[C@H](CC(N)=O)NC(=O)[C@H](CC(C)C)NC(=O)[C@@H](NC(=O)[C@H](Cc1c[nH]c2ccccc12)NC(=O)CN)[C@@H](C)O)C(C)C)C(=O)N[C@H](C(=O)N[C@@H](CO)C(=O)O)[C@@H](C)O [galanin] |  |  |  |  |  |  | Two mice in the group treated with galanin died | 
3 | NCCc1c[nH]c2ccc(O)cc12 [serotonin, 5-hydroxytryptamine] | no significant difference | no significant difference | 4±0.5 | no difference | Neither was there any difference |  |  | increase
